From US20250034586A1, “METHOD FOR EDITING BANANA GENES” (Tropic Biosciences UK Limited, priority 2021, published 2025)

Experiments:
banana rooting plantlets = assay: CSF kill curves in banana rooting plantlets (in medium, spraying, both); type: in vivo
Method: The effect of CSF was also evaluated in rooting plantlets. Three methods were tested, (i) incorporation of CSF in the rooting medium (RM), (ii) spraying the plantlets with CSF solution and (iii) incorporation in the media of a lower concentration of CSF (0.5 mg/L) and spraying the plantlets (concurrently).
Six CSF concentrations, 0, 0.05, 0.5, 5, 50 and 100 mg/L, were tested in rooting plantlets.
Rooting banana plantlets were cleared of roots and split from the corm to have single shoots for testing with RM medium with or without CSF. Five to six shoots with similar morphology were inoculated into each phytotray.
For spraying tests, CSF solutions (concentrations above) were prepared in sterile deionised water or in 0.015% Silwett L-77. One mL of solution was sprayed onto each phytotray (five shoots per phytotray, so 1 mL between five shoots). For control conditions (Omg/L CSF), 1 mL of deionised water was used.
A range of CSF concentrations (0, 0.05, 0.5, 5, 50, 100 mg/L) were tested in banana rooting shoots. Banana shoots were separated from roots and split to give single shoots that were inoculated into new media to determine the effect of CSF over a month of exposure. To assess the effectiveness of CSF in banana three approaches were tested: (i) incorporation of the toxin in RM medium, (ii) spraying the shoots, and (iii) spraying the shoots plus incorporation of a small amount of CSF […] in RM.

banana ECS [1] = assay: CSF selection of embryos from Agrobacterium-transformed banana ECS; type: cell-based; conditions: after 3 months
Method: Agrobacterium tumefaciens AGL1 carrying the binary plasmids pMol_0628, pMol_0630, and pMol_0632 were streaked from glycerol in LB solid medium supplemented with rifampicin 50 mg/L, kanamycin 100 mg/L and carbenicillin 50 mg/L and incubated at 28° C. for 2 days. On the second day, the bacteria were inoculated in MG/L medium (discussed in Sarkar et al., Methods Mol Biol. 2013; 966: 187-204) supplemented with the same antibiotics and incubated overnight at 28° C. Next day, the cultures were spun down at 4000 rpm for 10 min to pellet the cells and after they were resuspended in ABIM (Agrobacterium induction media; discussed in Sarkar et al., Methods Mol Biol. 2013; 966: 187-204) to induce virulence and incubated overnight in the dark at room temperature. The OD600 of the bacteria was measured using NanoDrop2000 and normalised to 0.6 in CS liquid media supplemented with acetosyringone (100 μM).
Banana ECS with 2/3 day-old cells was pelleted and resuspended in CS medium. 0.5 mL of the suspension (approximately 0.1 mL of ECS) was split according to the number of transformations into small Eppendorf tubes. The cells were incubated at 45° C. for 5 min and after they were incubated at room temperature for another 5 min. Then, 1 mL of agrobacterium suspension was added to each banana ECS sample. […]

[2] = tested on: banana WT and ALS edited embryos; assay: CSF in ECS regeneration, optimisation for edited embryos; type: cell-based; conditions: 3 months treatment
Method: Data were obtained for using CSF in ECS regeneration (3 months treatment) for concentrations 0, 25, 50 and 100 μg/L.

banana ECS [3] = assay: Comparison of Agrobacterium transformation and particle bombardment under CSF selection; type: cell-based; conditions: CSF 25 μg/L, particle bombardment
Method: Transformation using agrobacterium and particle bombardment was compared.
Banana ECS with cells 2/3 days old was pelleted and resuspended in CS medium. 0.5 mL of the suspension (approximately 0.1 mL of ECS) was split accordingly to the number of transformations into small Eppendorf tubes. The cells were incubated at 45° C. for 5 min and after they had cooled down for another 5 min. Then, 1 mL of agrobacterium suspension was added to the banana ECS. The mixture was mixed well and spun down at 1000 rpm for 5 min, and then, it was incubated for 25 min at room temperature. The banana cells were pooled, and the bacteria suspension was removed. The cells were inoculated in CS plates supplemented with acetosyringone 100 μM for 3 days at room temperature to promote transformation.
After 3 days, the banana ECS were collected from the previous media and transferred to CS media supplemented with cefotaxime 300 mg/L. One week later, the banana cells were transferred to EDM plates supplemented with cefo 300 mg/L (control), or cefo 300 mg/L and CSF 25 μg/L or cefo 300 mg/L and CSF 50 μg/L. The media was refreshed every 2 weeks until embryos were developed. Subsequently, the banana embryos were transferred to maturation media without CSF (EMM) for a month and then they were transferred to germination medium (GM4) without CSF until shoots developed.

Potato somatic cells = conditions: cited from earlier work
Tomato plants = conditions: in vivo; cited from earlier work

SMILES: COc1nc(C)nc(NC(=O)NS(=O)(=O)c2ccccc2Cl)n1 [CSF, chlorsulfuron]
- Severity of symptoms (banana rooting plantlets; 0.05 mg/L CSF in the medium plus spraying with CSF): an increase in the severity of symptoms
- Root development (banana rooting plantlets; CSF in medium, even at 0.05 mg/L): root development was not observed
- Effective CSF concentration added to the medium (plantlets did not develop, chlorotic phenotype) (banana rooting plantlets; CSF incorporated in RM medium, repeated 3 times): 0.5 mg/L
- Lowest concentration that delayed shoot development (banana rooting plantlets; spraying banana shoots): 5 mg/L
- Shoot development (banana rooting plantlets; weekly spraying with 0.5 mg/L CSF): quite effective at delaying banana shoot development
- Embryos, untransformed cells (banana ECS [1]; CSF 25 μg/L): No
- Embryos, untransformed cells (banana ECS [1]; CSF 50 μg/L): No
- Frequency of ALS edited embryos recovered after selection ([2]; CSF 25 μg/L): 1500 ± 500
- Frequency of WT embryos recovered after selection ([2]; CSF 25 μg/L): 0
- Frequency of ALS edited embryos recovered after selection ([2]; CSF 50 μg/L): 750 ± 250
- Frequency of WT embryos recovered after selection ([2]; CSF 50 μg/L): 0
- Frequency of ALS edited embryos recovered after selection ([2]; CSF 100 μg/L): 0
- Frequency of WT embryos recovered after selection ([2]; CSF 100 μg/L): 0
- Suitability for selection of edited bombarded cells (banana ECS [3]): too strong for selection of edited bombarded cells
- CSF concentration reported to be effective (Potato somatic cells): 20 µg/L
- CSF concentration reported to be effective (Tomato plants): 3.6 µg/L
